Test results from US9492472B2, “Compositions and methods of treating cancer” (Case Western Reserve University, priority 2009, dated 2016).
Peptide text beside a SMILES is read from it.

How the values were obtained:
[1] = Cell penetrating capacity of the pentapeptide; type: cell-based; conditions: cells incubated with the peptide >1 hr (n.s.)
[2] = reported earlier; cited from earlier work
[3] = tested on: A7 cells

Molecule	entry into cells without Ca2+ [1]	cell penetrating capacity [2]	toxicity [3]
KKRPK (listed as Homo sapiens) [cell penetrating pentapeptide, transport moiety]	can enter the cells	has cell penetrating capacity	–
CC[C@H](C)[C@H](NC(=O)[C@H](CC(C)C)NC(=O)[C@H](Cc1ccccc1)NC(=O)[C@H](CO)NC(=O)[C@@H](NC(=O)[C@H](CC(C)C)NC(=O)[C@H](CC(C)C)NC(=O)[C@@H](NC(=O)[C@@H](NC(=O)[C@@H]1CCCN1C(=O)[C@@H]1CCCN1C(=O)[C@H](CCCCN)NC(=O)[C@@H]1CCCN1C(=O)[C@H](CCCNC(=N)N)NC(=O)[C@H](CCCCN)NC(=O)[C@@H](N)CCCCN)C(C)C)[C@@H](C)CC)[C@@H](C)CC)C(=O)N[C@@H](Cc1ccccc1)C(=O)N[C@@H](CC(C)C)C(=O)N[C@H](C(=O)N[C@H](C(=O)NCC(=O)O)C(C)C)[C@@H](C)CC [KKRPK-PrP-GPI-PSS] (H-KKRPKPPVILLISFLIFLIVG-OH)	–	–	not toxic
